Experimental data reported in paper PMC10327353 (Breast Cancer Research : BCR, 2023).

Experiments:
[1] = In vivo CNS-PK study in rat; conditions: female, Wistar Han, brain and CSF (relative to unbound plasma/blood), single PO dose of DZD1516 30 mg/kg
Protocol: The ability of DZD1516 and DZ2678 to cross the BBB in female Wistar Han rat and female Cynomolgus monkey was studied by assessing the free brain-to-plasma ratio (Kp,uu,brain) and CSF-to-free plasma ratio (Kp,uu,CSF). Total brain-to-blood ratio (Kp,brain) and CSF-to-blood ratio (Kp,CSF) were measured from six time points after oral administration. Free fractions of DZD1516 and DZ2678 in the biological matrix were determined by in vitro plasma and brain binding assay.
Kp,brain= AUCbrain/AUCblood. Kp,CSF was the average of the CSF-to-blood ratios at the evaluated time points. Kp,uu,brain= Kp,brain× fu,brain/fu,blood; Kpuu,CSF= Kp,CSF/fu,blood.
In total, twenty-one female Wistar Han rats were administered with a single PO dose of DZD1516 at 30 mg/kg. The PO dosing formulation was a suspension in 0.5% HPMC E5 in water (w/v). Plasma, brain, and CSF samples were collected at 0.5, 1, 2, 4, 8, 24, and 30 hrs post-dose. The concentrations of DZD1516 and metabolite DZ2678 in plasma, brain, and CSF samples from the rats, as well as in plasma and CSF samples from the monkeys, were determined by the validated LC-MS/MS method.

[2] = test system: A431 cells; test: Cell proliferation assay (CellTiter-Glo), A431; format: cell-based; conditions: Homo sapiens, A-431; A431, 72 hrs
Protocol: BT474C1-Luci Mono1 cells were seeded in 384-well plates at 1500 cells/well in DMEM medium containing 10% FBS and 1 mM Oxaloacetic acid (OAA). A431 cells were seeded in 384-well plates at 1,000 cells/well in DMEM medium containing 10% FBS. After overnight incubation, cells were treated with compounds at various concentrations for 3 days. Then cell viability was measured using a CellTiter-Glo Luminescent Cell Viability Assay from Promega Corp. according to the manufacturer's instructions.

[3] = Human hepatocyte intrinsic clearance; format: in vitro ADME; conditions: human hepatocytes; read-out: Human Heps Clint
[4] = target: HER2 (Homo sapiens, UniProt P04626); test: pHER2 MSD assay in BT474C1 cells; format: cell-based; set-up: endogenous in cells; host or cells: BT474C1-Luci Mono1 (BT474 transfected with luciferase only); conditions: BT474C1, 4 hrs treatment
Protocol: A431 and BT474C1-Luci Mono1 cells were seeded in 96-well plates at 20,000 cells/well in DMEM medium containing 1% FBS. After overnight incubation, all cells were treated with compounds at a series of concentrations for 4 hrs. For A431 cell line, an extra stimulation with recombinant human EGF (100 ng/ml for 10 minutes) is applied to activate wild-type EGFR following compound treatment. pEGFR^Y1068 and total EGFR levels were measured by an electro chemiluminescent method (MULTI-SPOT®96 4-Spot HB Prototype EGFR Triplex […]: pEGFR (Y1068), Total EGFR; MESO SCALE DISCOVERY, Cat# N45ZB-1) with MSD SECTOR® Imager, which outputs the ratio of pEGFR/total EGFR for each well. pHER2^Y1248 and total HER2 levels were measured similarly using pHER2 (Y1248) Assay Whole Cell Lysate Kit (MESO SCALE DISCOVERY, Cat# K151CLD-3). The percentage of inhibition was calculated as: % Inhibition = 100 x [1 - (ratio of the sample well - ratio of Min ctrl well)/ (ratio of Max ctrl well - ratio of Min ctrl well)].

[5] = Phase 1 study: CSF penetration (Kp,uu,CSF); format: in vivo, human; conditions: for Kp uu: human, oral
Protocol: Blood samples for PK analyses of DZD1516 and DZ2678 were collected on C0D1. Samples were obtained at pre-dose and at 0.5, 1, 1.5, 2, 2.5, 3, 4, 6, 8, 10, 24, 48, and 72 h after the dose, while for C1D15, samples were obtained at pre-dose and 0.5, 1, 1.5, 2, 2.5, 3, 4, 6, 8, and 10 h after the dose. CSF samples for PK analyses of DZD1516 and its metabolite DZ2678 were collected from patients with BM (C1D15) and LM (C1D15 and C3D1) at steady state (Additional file 1). Plasma and CSF samples were analyzed by LabCorp Madison laboratory (Madison, WI, USA) and LabCorp Shanghai laboratory (Shanghai, China) using a validated LC/MS/MS bioanalytical method to determine DZD1516 and DZ2678 concentrations. Non-compartmental PK analysis was performed using Phoenix WinNonlin (Certara USA Inc., version 8.3.3.33).

[6] = target: T1, pHER2 (Homo sapiens, UniProt P04626); test: pHER2 IHC (PD) in SC xenograft tumor tissue after single dose; format: in vivo, mice
T1 construct: from tissue; host or cells: subcutaneous BT474C1-Luci Mono1 xenograft tumour tissue from nude mice
Protocol: The subcutaneous xenograft tissues were collected from mice after a single dose of vehicle or DZD1516. Samples were snap-frozen for analysis. Tissues from animals were analyzed at each time point IHC was performed on 5 μm frozen sections using a Ventana discovery XT automation (Roche) for pHER2 (Catalog #) IHC staining. The stained IHC slides were firstly reviewed and interpreted by a qualified pathologist and then quantified by the Imagescope software of Aperio system. The “H” score quantified by Aperio system will be corrected by a pathologist. Statistical analysis was performed by t-test.

T1 sequence (P04626 23-1255): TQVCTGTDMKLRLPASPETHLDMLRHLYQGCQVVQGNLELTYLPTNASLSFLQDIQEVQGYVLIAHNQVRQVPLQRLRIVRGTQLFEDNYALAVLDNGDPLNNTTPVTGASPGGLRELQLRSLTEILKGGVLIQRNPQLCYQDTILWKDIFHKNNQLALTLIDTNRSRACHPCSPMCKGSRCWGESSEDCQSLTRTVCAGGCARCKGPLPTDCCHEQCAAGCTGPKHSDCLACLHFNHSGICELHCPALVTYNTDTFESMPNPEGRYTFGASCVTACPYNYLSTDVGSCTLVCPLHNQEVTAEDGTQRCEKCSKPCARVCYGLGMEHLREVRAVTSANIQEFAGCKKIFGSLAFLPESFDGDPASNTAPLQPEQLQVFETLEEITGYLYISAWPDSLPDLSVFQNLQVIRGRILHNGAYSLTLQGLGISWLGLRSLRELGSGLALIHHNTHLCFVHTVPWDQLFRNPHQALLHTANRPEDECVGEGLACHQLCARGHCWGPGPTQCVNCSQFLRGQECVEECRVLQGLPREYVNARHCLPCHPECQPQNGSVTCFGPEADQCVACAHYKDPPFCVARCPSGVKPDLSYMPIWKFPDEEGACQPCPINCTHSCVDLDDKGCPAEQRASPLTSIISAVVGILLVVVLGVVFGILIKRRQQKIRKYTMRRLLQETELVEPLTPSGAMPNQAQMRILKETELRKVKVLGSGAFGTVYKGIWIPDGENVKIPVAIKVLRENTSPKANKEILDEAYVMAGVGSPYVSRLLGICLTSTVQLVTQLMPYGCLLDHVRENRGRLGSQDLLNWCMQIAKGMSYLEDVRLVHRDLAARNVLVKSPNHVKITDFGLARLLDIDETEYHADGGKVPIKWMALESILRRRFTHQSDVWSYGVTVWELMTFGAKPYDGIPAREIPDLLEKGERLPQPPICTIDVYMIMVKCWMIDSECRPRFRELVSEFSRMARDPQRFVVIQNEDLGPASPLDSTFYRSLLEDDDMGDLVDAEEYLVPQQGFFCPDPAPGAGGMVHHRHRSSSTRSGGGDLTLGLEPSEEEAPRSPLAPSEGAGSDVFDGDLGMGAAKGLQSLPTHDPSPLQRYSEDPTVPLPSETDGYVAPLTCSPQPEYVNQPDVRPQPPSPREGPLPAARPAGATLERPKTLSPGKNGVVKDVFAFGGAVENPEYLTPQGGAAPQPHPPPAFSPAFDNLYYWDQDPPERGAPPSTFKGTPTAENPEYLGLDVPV
HER2, sequence (P04626 23-1255): as above

SMILES: COc1cc(O[C@H]2CCN(C)CC2(F)F)c2c(Nc3ccc(Oc4ccn5ncnc5c4)c(C)c3)ncnc2c1 [DZD1516]
- Kp uu [1]: 0.57 to 0.87
- GI50 [2]: 8.87 µM
- hepatocyte CLint [3]: 12 µL/min/1e6 cells
- IC50 [4]: 0.0044 µM
- CSF conc ([5]; 50 mg, subject 1): 4.89 nmol/L
- Free plasma conc ([5]; 50 mg, subject 1): 5.35 nM
- CSF conc ([5]; 50 mg, subject 2): 10.2 nmol/L
- Free plasma conc ([5]; 50 mg, subject 2): 6.28 nM
- CSF conc ([5]; 100 mg, subject 3): 39.3 nmol/L
- Free plasma conc ([5]; 100 mg, subject 3): 13.4 nM
- CSF conc ([5]; 100 mg, subject 4): 15.5 nmol/L
- Free plasma conc ([5]; 100 mg, subject 4): 4.95 nM
- CSF conc ([5]; 100 mg, subject 5): 12.7 nmol/L
- Free plasma conc ([5]; 100 mg, subject 5): 4.84 nM
- CSF conc ([5]; 200 mg, subject 6): 18.3 nmol/L
- Free plasma conc ([5]; 200 mg, subject 6): 13.9 nM
- CSF conc ([5]; 250 mg, subject 7): 27.9 nmol/L
- Free plasma conc ([5]; 250 mg, subject 7): 24.0 nM
- CSF conc ([5]; 250 mg, subject 8): 54.2 nmol/L
- Free plasma conc ([5]; 250 mg, subject 8): 17.4 nM
- Kp uu ([5]; CSF (relative to unbound plasma), patients with CNS metastases, read-out: mean Kp,uu,CSF): 2.1
- Kp uu ([5]; CSF / free plasma, 100 mg, subject 4, read-out: Kp,uu,CSF): 3.13
- Kp uu ([5]; CSF / free plasma, 100 mg, subject 5, read-out: Kp,uu,CSF): 2.63
- Kp uu ([5]; CSF / free plasma, 200 mg, subject 6, read-out: Kp,uu,CSF): 1.31
- Kp uu ([5]; CSF / free plasma, 250 mg, subject 7, read-out: Kp,uu,CSF): 1.16
- Kp uu ([5]; CSF to free plasma, 50 mg, subject 1, read-out: Kp,uu,CSF): 0.915
- Kp uu ([5]; CSF to free plasma, 50 mg, subject 2, read-out: Kp,uu,CSF): 1.62
- Kp uu ([5]; CSF to free plasma, 100 mg, subject 3, read-out: Kp,uu,CSF): 2.94
- Kp uu ([5]; CSF to free plasma, 250 mg, subject 8, read-out: Kp,uu,CSF): 3.13
- inhibition at 50 mg/kg ([6]; mouse, single dose 50 mg/kg, 0.25 h): > 94%
- inhibition at 150 mg/kg ([6]; mouse, single dose 150 mg/kg): 89%
- duration of pHER2 inhibition ([6]; single dose 50 mg/kg): 6 h
- duration of pHER2 inhibition ([6]; single dose 150 mg/kg): 24 h
